Source: patent US20050239733A1, “Sequence requirements for inhibitory oligonucleotides” (Coley Pharmaceutical GmbH, priority 2003, published 2005)

Experiments:
human PBMC = assay: Inhibition of CpG ODN 2395-induced IFN-α secretion by human PBMC; assay type: cell-based; conditions: FIG. 9; 0.5 μM CpG ODN 2395, increasing ODN, 24 h
Protocol: In this set of experiments human PBMC were isolated from human blood and incubated in the presence of 0.5 μM CpG ODN 2395 ([…]; SEQ ID NO:30) and increasing concentrations of inhibitory ODN. CpG ODN 2395 induces high amounts of IFN-α in human PBMC through TLR9-mediated signaling. The secreted amount of IFN-α induced by CpG ODN 2395 after 24 h was set to 100%.

human TLR8 = target: T1, human TLR8 (Homo sapiens, UniProt Q9NR97); assay: Inhibition of R-848-mediated NF-κB-luciferase activation in hTLR8-LUC-293 cells; assay type: cell-based; conditions: general statement 'found according to the present invention'; conditions not given
T1 construct: expressed in transfected cells
T1 sequence (Q9NR97 27-1041): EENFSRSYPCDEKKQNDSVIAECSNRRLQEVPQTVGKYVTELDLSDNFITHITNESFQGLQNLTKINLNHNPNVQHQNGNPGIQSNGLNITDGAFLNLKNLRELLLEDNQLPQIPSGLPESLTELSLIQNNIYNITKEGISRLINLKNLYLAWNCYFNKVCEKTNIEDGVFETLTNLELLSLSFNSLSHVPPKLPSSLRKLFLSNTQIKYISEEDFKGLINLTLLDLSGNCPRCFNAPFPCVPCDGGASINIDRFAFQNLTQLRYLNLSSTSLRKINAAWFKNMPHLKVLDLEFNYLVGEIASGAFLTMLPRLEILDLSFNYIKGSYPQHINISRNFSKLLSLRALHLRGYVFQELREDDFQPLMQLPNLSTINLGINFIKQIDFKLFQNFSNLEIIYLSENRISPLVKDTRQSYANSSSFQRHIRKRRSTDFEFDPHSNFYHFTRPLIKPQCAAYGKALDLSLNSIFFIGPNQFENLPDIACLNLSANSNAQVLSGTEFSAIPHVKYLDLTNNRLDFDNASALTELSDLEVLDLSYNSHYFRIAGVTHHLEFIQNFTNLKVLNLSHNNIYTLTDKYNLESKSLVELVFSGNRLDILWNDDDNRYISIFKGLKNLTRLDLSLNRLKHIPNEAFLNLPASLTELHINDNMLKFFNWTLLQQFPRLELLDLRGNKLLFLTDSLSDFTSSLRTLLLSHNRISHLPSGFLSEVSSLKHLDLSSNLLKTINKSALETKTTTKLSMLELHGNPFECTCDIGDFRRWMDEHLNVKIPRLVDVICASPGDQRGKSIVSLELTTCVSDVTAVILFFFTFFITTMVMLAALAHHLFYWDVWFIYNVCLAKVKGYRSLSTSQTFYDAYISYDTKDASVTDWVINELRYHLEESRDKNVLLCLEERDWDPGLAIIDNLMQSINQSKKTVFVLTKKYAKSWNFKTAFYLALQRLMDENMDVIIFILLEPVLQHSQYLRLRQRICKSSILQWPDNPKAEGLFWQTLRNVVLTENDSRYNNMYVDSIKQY
Protocol: The previous examples describe the ability of certain inhibitory ODN to inhibit activation of signal transduction mediated by human Toll-like receptor 9 (hTLR9). […] The assay system involved stimulating hTLR8-LUC-293 cells with the TLR8 ligand, R-848 (Resiquimod; Jurk M et al. (2002) Nat Immunol 3:499) in the presence and absence of ODN and comparing the induction of luciferase activity in the absence of ODN to luciferase activity in the presence of ODN.
Cells were assayed for luciferase activity 16 h later. Results were calculated as fold induction above medium background.
Luciferase activity was assayed after 16 h.
hTLR8-LUC-293 cells were incubated with 50 μM R-848 in the presence of increasing concentrations of the following ODN: ODN 2088, D13GT (whererin D is dSpacer), GTN13, N6GTN7, random 15-mer N15, N13GT, and the dinucleotide GT. Luciferase activity was assayed after 16 h. Luciferase activity of R-848 without any ODN was set to 100% (without correction for medium background, i.e. background activity of medium remained at approx. 17%).
Luciferase activity was assayed after 16 h. Luciferase activity of R-848 without any ODN was set to 100% (without correction for medium background, i.e., background activity of medium remained at approx. 17%).
In yet a further set of experiments hTLR8-LUC-293 cells were incubated with 50 μM R-848 in the presence of increasing amounts of different dinucleotides (GT, ODN 603; TG, ODN 688; GG, ODN 689; GU, ODN 690; UG, ODN 691; AT, ODN 692; and TT, ODN 693). Luciferase was assayed after 16 h. Luciferase activity of R-848 without any ODN was set to 100% and remaining R-848-mediated NF-κB activation in the presence of dinucleotides or ODN 2088 was calculated. Medium background was 17% in this set of experiments.
hTLR-LUC-293 cells (expressing the respective humanTLR7, TLR8, or TLR9) were incubated with constant amounts of TLR-agonist (for hTLR7: 2 μM R-848, for hTLR8: 50 μM R-848, and for hTLR9: 0.156 μM CpG ODN 2006) and increasing amounts of TLR-antagonist. […] To compare data for different TLRs, percent remaining activity of agonist was plotted against the log of molar ratio of antagonist to agonist (e.g., for hTLR8: 50 μM R-848 and 5 μM ODN, the plotted ratio is 10^−1). Used ODN concentrations were: for hTLR7 and hTLR8, 5 μM, 0.5 μM, 0.05 μM, and 0.005 μM, and for hTLR9, 2.5 μM, 0.156 μM, 0.0098 μM and 0.00061 μM.

human TLR9 = target: T2, human TLR9 (Homo sapiens, UniProt Q9NR96); assay: Inhibition of CpG ODN 2006-mediated NF-κB-luciferase activation in hTLR9-LUC-293 cells; conditions: for inhibitory for TLR9: general statement 'found according to the present invention', conditions not given; for Percent 2006 Activity: equimolar 0.156 μM CpG ODN 2006 and inhibitory ODN
T2 sequence (Q9NR96 26-1032): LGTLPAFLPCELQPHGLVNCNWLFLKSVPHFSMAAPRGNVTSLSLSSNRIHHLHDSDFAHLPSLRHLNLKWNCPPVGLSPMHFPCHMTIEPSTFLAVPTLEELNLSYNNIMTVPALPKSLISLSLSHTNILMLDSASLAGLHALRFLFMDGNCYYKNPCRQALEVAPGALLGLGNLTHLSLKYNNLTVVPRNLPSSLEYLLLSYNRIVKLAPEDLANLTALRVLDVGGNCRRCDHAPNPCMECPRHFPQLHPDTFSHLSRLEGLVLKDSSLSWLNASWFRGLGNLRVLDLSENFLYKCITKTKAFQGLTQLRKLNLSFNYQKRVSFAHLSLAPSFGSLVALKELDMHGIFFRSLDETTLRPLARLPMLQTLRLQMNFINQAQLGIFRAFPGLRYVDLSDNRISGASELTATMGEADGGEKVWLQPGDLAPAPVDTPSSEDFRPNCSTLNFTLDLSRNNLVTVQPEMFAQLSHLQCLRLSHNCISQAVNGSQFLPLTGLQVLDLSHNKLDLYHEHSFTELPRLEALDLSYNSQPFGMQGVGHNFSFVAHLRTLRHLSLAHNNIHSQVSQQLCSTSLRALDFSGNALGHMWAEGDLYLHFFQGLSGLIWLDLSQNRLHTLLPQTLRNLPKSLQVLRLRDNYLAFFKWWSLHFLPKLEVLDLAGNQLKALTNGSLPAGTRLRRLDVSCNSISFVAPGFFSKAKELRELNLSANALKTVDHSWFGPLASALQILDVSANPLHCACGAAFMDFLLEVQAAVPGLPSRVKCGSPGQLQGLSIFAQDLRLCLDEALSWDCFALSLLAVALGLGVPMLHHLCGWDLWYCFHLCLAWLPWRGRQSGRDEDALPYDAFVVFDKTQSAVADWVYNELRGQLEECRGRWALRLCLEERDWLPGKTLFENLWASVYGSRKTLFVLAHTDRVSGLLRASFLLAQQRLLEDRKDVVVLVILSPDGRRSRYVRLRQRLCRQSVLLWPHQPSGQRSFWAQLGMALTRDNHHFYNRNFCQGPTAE

[1] = Table 2 (5′ CC replaced by other dinucleotides)

Sequence	inhibition of IFN-α production in human PBMC, in words (human PBMC)	inhibitory for TLR8 (human TLR8)	inhibitory for TLR9 (human TLR9)	Percent 2006 Activity (human TLR9; Table 1 (length b / Spacer 18 variants)) [%]	Percent 2006 Activity (human TLR9; [1]) [%]
CCTTGTTGGG (DNA, backbone and methylation of C not given here) [ODN 223]	inhibited	–	–	–	–
NNNNNNNNNNNNNGT [ODN 467]	not	–	–	–	–
TCCTGGAGGGGAAGT (DNA, backbone and methylation of C not given here) [ODN 2114]	–	inhibitory	inhibitory	–	–
TCCTGTGTGTGTGTGTGTCGGGGAAGT (DNA, backbone and methylation of C not given here) [ODN 497]	–	inhibitory	inhibitory	28	–
TGATGGCGGGGAAGT (listed as DNA, chemistry not given here) [ODN 444]	–	inhibitory	–	–	96
TGCTGGCGGGGAAGT (listed as DNA, chemistry not given here) [ODN 443]	–	inhibitory	–	–	91
TGTTGGCGGGGAAGT (listed as DNA, chemistry not given here) [ODN 445]	–	inhibitory	–	–	97
